# Assay results as given in article PMC8347481, “Germacranolides from Carpesium divaricatum: Some New Data on Cytotoxic and Anti-Inflammatory Activity” (Molecules, 2021).
# Where two headings read alike, the source gives them in different places.
# Experiments:
# NF-κB = settings: cited from earlier work
# cancer cells = system: cancer cells; design: method as in PMID 30127485, PMID 22908556; settings: cancer cells in vitro; cited from earlier work
# [1] = system: human polymorphonuclear leukocytes (PMNs); test: Cytotoxicity to neutrophils, propidium iodide staining and flow cytometry; assay type: cell-based; settings: at 2.5 µM or lower concentrations, 24 h incubation
# Experimental: Cytotoxicity of 1 and 2 to human polymorphonuclear leukocytes (PMNs) was evaluated using propidium iodide (PI) staining and flow cytometry (FACS) analysis. The compounds were nontoxic in PMNs at 2.5 µM or lower concentrations (Figure 4).
# Cytotoxicity was assessed by a standard flow cytometric probe using propidium iodide (PI) staining. After 24 h of incubation in the absence or presence of the tested germacranolide (at concentrations of 0.5, 1.0, 2.5 and 5.0 μM), the neutrophils (3.5 × 10^5) were harvested and centrifuged (1500 r.p.m., 10 min, 4 °C), washed once with cold PBS and resuspended in 400 μL of PBS. A 5 μL aliquot of PI solution (50 μg/mL) was added to the cell suspension. After 15 min of incubation with PI at room temperature, cells were analyzed by BD FACSCalibur flow cytometer (BD Biosciences, San Jose, CA, USA), and 10,000 events were recorded per sample.
# MCF-7 cell line = system: MCF-7 cell line; design: method as in PMID 30127485; settings: cited from earlier work
# U-2 OS = test: MTT viability test, osteosarcoma cells with wild-type p53 status; settings: Homo sapiens, U2OS
# Experimental: (§6) Two osteosarcoma cell lines: U-2 OS (with wild-type p53 status) and SAOS-2 (p53 null cell line) were used to evaluate cytotoxic activity of 1 and 2. Doxorubicin was employed as a reference drug. Viability of the cells treated by 1 or 2 (concentration range 0.014–50.0 µM) for 24 and 48 h was assessed by thiazolyl blue tetrazolium bromide (MTT) test.
# (§7) Human osteosarcoma cell lines U-2 OS (ATCC HTB-96; wild-type p53 status) and SAOS-2 (ATCC HTB-85; p53 deletion) were cultured in McCoy’s 5A medium containing L-glutamine and supplemented with 10% FBS at 37 °C and in a humidified atmosphere with 5% CO2. […] After that, working solutions were diluted with culture media to the final 1× concentrations (0.014–50 μM).
# (§8) For the MTT assay, the osteosarcoma cells suspended in the nutrient medium were seeded into 96-well microtiter plates (density 1.0 × 10^4 per well) and preincubated for 24 h (37 °C, 5% CO2). Subsequently, the cells were treated with 1 or 2 at different concentrations (0.014–50 μM) and further cultivated for another 24 or 48 h. After that, MTT was added for 1 h at the final concentration of 500 ng/mL. The culture medium was removed and the formazan crystals were dissolved in isopropanol containing 40 mM HCl. Absorbance was measured using Tecan microplate reader at 570 nm with the reference wavelength of 650 nm. […] Data were analyzed using Origin software.
# [2] = system: CCL2 secretion by LPS-stimulated human neutrophils; test: CCL2 release, ELISA; assay type: cell-based; settings: 0.5, 1.0 and 2.5 µM, 24 h after LPS stimulation
# Experimental: (§1) In response to stimulation with proinflammatory agents, e.g., LPS or f-MLP, human neutrophils excrete an array of cytokines and chemokines, including TNF-α, IL-1β, IL-8 and CCL2 [29, 30]. In the present study, neutrophils were pretreated with the examined compounds (1 or 2) before their priming with LPS. Levels of IL-1β, IL-8, TNF-α and CCL2 were determined in the culture medium, using ELISA, 24 h after LPS stimulation.
# (§2) Neutrophils (2 × 10^6) were cultured in 24-well plates in RPMI 1640 medium with 10% FBS, 10 mM HEPES and 2 mM L-glutamine, in the presence or absence of LPS (100 ng/mL) and in the absence or presence of 1 or 2 (final concentrations of the examined germacranolide in a range of 0.5–2.5 μM), at 37 °C with 5% CO2. The neutrophils were harvested after 24 h and centrifuged (2000 r.p.m., 10 min, 4 °C). The amount of released cytokines was measured by enzyme-linked immunosorbent assay (ELISA) following the manufacturer’s instructions (BD Biosciences, USA). The effects on IL-8, IL-1β, CCL2 and TNF-α production by the neutrophils were calculated by comparing the percentages of the released agents to the stimulated control without the tested compound.
# [3] = system: IL-8 secretion by LPS-stimulated human neutrophils; test: IL-8 release, ELISA; assay type: cell-based; settings: 0.5, 1.0 and 2.5 µM, 24 h after LPS stimulation
# Experimental: as §1, §2
# [4] = system: TNF-α secretion by LPS-stimulated human neutrophils; test: TNF-α release, ELISA; assay type: cell-based
# Experimental: as §1, §2
# [5] = system: IL-1β secretion by LPS-stimulated human neutrophils; test: IL-1β release, ELISA; assay type: cell-based; settings: 0.5, 1.0 and 2.5 µM, 24 h after LPS stimulation
# Experimental: as §1, §2
# SAOS-2 = test: MTT viability test, osteosarcoma cells with p53 deletion; settings: Homo sapiens
# Experimental: as §6, §7, §8
# [6] = system: ROS release from f-MLP-stimulated human neutrophils; test: ROS production, luminol-dependent chemiluminescence; assay type: cell-based; settings: f-MLP stimulation, concentration range 1–2.5 μM
# Experimental: Activation of PMNs, either at a site of inflammation or induced in vitro by proinflammatory agents, results in an oxidative burst in these cells. The phenomenon is characterized by intense ROS generation and liberation of proteolytic enzymes from azurophilic granules. An effect of the sesquiterpene lactones 1 and 2 on ROS production in PMNs was assessed in response to N-formyl-Met-Leu-Phe (f-MLP) stimulation.
# ROS production was measured using luminol-dependent chemiluminescence test. A 70 μL aliquot of neutrophil suspension (3.5 × 10^5) in (Ca^2+)-free HBSS buffer, 50 μL of the tested compound solution and 50 μL of luminol (100 μM) were added to a well in a 96-well plate. ROS production was initiated by the addition of f-MLP (30 μL of 0.1 μg/mL solution) to obtain a total volume of 200 μL per well. Chemiluminescence changes were measured for 40 min, at 2 min intervals, in a microplate reader (37 °C). The background chemiluminescence produced by nonstimulated cells was also determined. The percentage of inhibition was calculated by comparison to the stimulated control without the tested compound, at the maximum luminescence.
# PC3 cells = system: PC3 cells; design: method as in PMID 33968193; settings: cited from earlier work
# HepG2 cells = system: HepG2 cells; design: method as in PMID 35520265; settings: cited from earlier work
# A375 = test: LDH cell viability assay, melanoma cells; assay type: cell-based; settings: Homo sapiens, A-375; A375, 24 h, LDH assay; read-out: IC50
# Experimental: (§3) Normal prostate epithelial cells (PNT2), two prostate cancer cell lines (Du145 and PC3), human keratinocytes (HaCaT), two melanoma cell lines (A375 and HTB140) and two colon cancer cell lines (HT29 and Caco-2) were treated with 3 at a concentration range 1.0–50.0 µg/mL. Viability of the cells was estimated using lactate dehydrogenase (LDH) assay.
# (§4) Cytotoxic activity of 3 was tested on human cancer and normal cells, grouped in three panels: prostate, skin and gastrointestinal. The prostate panel comprised prostate cancer cell lines DU145 (ATCC HTB-81) and PC3 (ATCC CRL-1435) and prostate normal epithelial cells PNT2 (ECACC 95012613). Melanoma cell lines A375 (ATCC CRL-1619) and HTB140 (ATCC Hs 294T) together with human keratinocytes HaCaT (obtained as a kind gift of Prof. Marta Michalik, Department of Cell Biology, Jagiellonian University) were included in the skin panel. Two colon cancer cell lines, namely Caco-2 (ATCC HTB-37) and HT29 (ATCC HTB-38), constituted the gastrointestinal panel. Du145 cells were grown in a modified Eagle’s medium with low (1.0 g/L) glucose concentration; HT29, PC3 and PNT-2 cells were grown in Dulbecco’s modified Eagle’s medium (DMEM) and F12 HAM Nutrient Mixture; Caco-2 cells were grown in modified Eagle’s medium with nonessential amino acids (NEAA); and melanoma cells and keratinocytes were maintained in modified Eagle’s medium with high (4.5 g/L) glucose concentration. The culture media contained antibiotics and 10% fetal bovine serum (FBS). All cultures were maintained at 37 °C in a humidified, 5% CO2-containing atmosphere.
# (§5) The examined compound (3) was diluted in the culture media from freshly made stock solution in MeOH (10 mg/mL) to the working concentrations (from 0 to 50 μg/mL). Cell viability was determined as described previously. […] Then, the culture medium was replaced with the medium containing different concentrations of the assessed compound (1–50 μg/mL). After 24 h of incubation, the viability of the cells was determined using colorimetric lactate dehydrogenase (LDH) assay in comparison to the controls to which corresponding aliquots of MeOH diluted with culture media were added. Cells grown in the medium without the tested compound were used as control I (negative), and the positive control (control II) was obtained by incubation of the cells in the medium containing 1% Triton X-100. LDH released from the damaged cells into the cell culture medium was quantified by measuring the absorbance at 490 nm using a Synergy II Biotek microplate reader. Cytotoxicities of the examined compounds were calculated as follows: ((absorbance of the tested sample−absorbance of control I)/(absorbance of control II−absorbance of control I)) × 100. Results were means of three independent measurements (± SD). Doxorubicin (Ebewe Pharma G.m.b.H., Unterach, Austria) was used as a reference cytostatic drug.
# HTB140 = test: LDH cell viability assay, melanoma cells; assay type: cell-based; settings: Homo sapiens; HTB140, 24 h, LDH assay; read-out: IC50
# Experimental: as §3, §4, §5
# [7] = system: normal and cancer cell lines (prostate, skin, gastrointestinal panels); test: LDH cytotoxicity, whole panel of normal and cancer cell lines; assay type: cell-based; settings: Homo sapiens; 24 h treatment, cell density 1.5 × 10^4; doxorubicin: except PC3 cells; read-out: IC50 range over the cell lines
# Experimental: Cytotoxic activity of 3 was tested on human cancer and normal cells, grouped in three panels: prostate, skin and gastrointestinal. The prostate panel comprised prostate cancer cell lines DU145 (ATCC HTB-81) and PC3 (ATCC CRL-1435) and prostate normal epithelial cells PNT2 (ECACC 95012613). Melanoma cell lines A375 (ATCC CRL-1619) and HTB140 (ATCC Hs 294T) together with human keratinocytes HaCaT (obtained as a kind gift of Prof. Marta Michalik, Department of Cell Biology, Jagiellonian University) were included in the skin panel. Two colon cancer cell lines, namely Caco-2 (ATCC HTB-37) and HT29 (ATCC HTB-38), constituted the gastrointestinal panel. […]
# The examined compound (3) was diluted in the culture media from freshly made stock solution in MeOH (10 mg/mL) to the working concentrations (from 0 to 50 μg/mL). Cell viability was determined as described previously. […] Then, the culture medium was replaced with the medium containing different concentrations of the assessed compound (1–50 μg/mL). After 24 h of incubation, the viability of the cells was determined using colorimetric lactate dehydrogenase (LDH) assay in comparison to the controls to which corresponding aliquots of MeOH diluted with culture media were added. […] LDH released from the damaged cells into the cell culture medium was quantified by measuring the absorbance at 490 nm using a Synergy II Biotek microplate reader. […]
# PC3 = test: LDH cell viability assay, prostate cancer cells; assay type: cell-based; settings: Homo sapiens, PC-3; PC3, 24 h, LDH assay; read-out: IC50
# Experimental: as §3, §4, §5
# HaCaT = test: LDH cell viability assay, keratinocytes; assay type: cell-based, human; settings: Homo sapiens, 24 h, LDH assay, read-out: IC50
# Experimental: as §3, §4, §5
compound,measurement,setting,value
"2β,5-epoxy-5,10-dihydroxy-6α-angeloyloxy-9β-isobutyryloxy-germacran-8α,12-olide",NF-κB inhibitory effect,NF-κB; concentration of 10 μM,NF-κB inhibitory effect was shown
same,IC50,cancer cells,> 7.9 µM
"C=C1C(=O)O[C@H]2[C@H]1[C@@H](O)[C@H](OC(=O)C(C)CC)[C@H](C)CCC(=O)[C@](C)(O)[C@@H]2OC(=O)/C(C)=C\C (stereo partly drawn) [Compound 1, 4β,8α-dihydroxy-5β-angeloyloxy-9β-(2-methylbutyryloxy)-3-oxo-germacran-6α,12-olide]",Cytotoxicity to PMNs (propidium iodide staining),[1],nontoxic
same,Cytotoxicity,MCF-7 cell line,resistant
same,IC50,U-2 OS; 24 h,7.77 µM
same,IC50,U-2 OS; 48 h,5.1 µM
same,CCL2 production upon LPS stimulation,[2],significant and dose-dependent inhibition
same,IL-8 production upon LPS stimulation,[3],significant and dose-dependent inhibition
same,TNF-α secretion,[4]; lowest concentration (0.5 μM),could not be achieved
same,TNF-α release,"[4]; only in the two higher concentrations (1.0 and 2.5 μM), 24 h after LPS stimulation",statistically significant reduction
same,IL-1β production upon LPS stimulation,[5],significant and dose-dependent inhibition
same,IC50,"SAOS-2; SAOS-2, 24 h",9.11 µM
same,IC50,"SAOS-2; SAOS-2, 48 h",6.76 µM
same,ROS generation,[6],significantly and dose-dependently reduced ROS generation
"C=C1C(=O)O[C@H]2[C@H]1[C@@H](OC(=O)C(C)C)C(=O)[C@H](C)CCC[C@](C)(O)[C@@H]2OC(=O)C(C)C [incaspitolide A, Incaspitolide A]",Apoptosis induction,PC3 cells,appeared to induce apoptosis
"C=C1C(=O)O[C@H]2[C@H]1[C@@H](O)[C@H](OC(=O)CC(C)C)[C@H](C)CCC(=O)[C@](C)(O)[C@@H]2OC(=O)/C(C)=C\C [Compound 2, 4β,8α-dihydroxy-5β-angeloyloxy-9β-(3-methylbutyryloxy)-3-oxo-germacran-6α,12-olide]",Cytotoxicity to PMNs (propidium iodide staining),[1],nontoxic
same,IC50,U-2 OS; 24 h,3.18 µM
same,IC50,U-2 OS; 48 h,2.52 µM
same,CCL2 production upon LPS stimulation,[2],significant and dose-dependent inhibition
same,IL-8 production upon LPS stimulation,[3],significant and dose-dependent inhibition
same,IL-1β production upon LPS stimulation,[5],significant and dose-dependent inhibition
same,IC50,"SAOS-2; SAOS-2, 24 h",5.21 µM
same,IC50,"SAOS-2; SAOS-2, 48 h",3.57 µM
same,ROS generation,[6],significantly and dose-dependently reduced ROS generation
Cardivarolide H,Apoptosis induction,HepG2 cells,appeared to induce apoptosis
"COc1cccc2c1C(=O)c1c(O)c3c(c(O)c1C2=O)C[C@@](O)(C(=O)CO)C[C@@H]3O[C@H]1C[C@H](N)[C@H](O)[C@H](C)O1 [Doxorubicin, reference compound]",IC50,A375,0.59 ± 0.04 µg/mL
same,IC50,HTB140,> 5.71 µg/mL
same,IC50,[7],1.1 to 10.5 µM
same,IC50,U-2 OS; 24 h,1.87 µM
same,IC50,U-2 OS; 48 h,0.17 µM
same,IC50,PC3,> 50 µg/mL
same,IC50,HaCaT,> 4.68 µg/mL
same,IC50,"SAOS-2; SAOS-2, 24 h",4.36 µM
same,IC50,"SAOS-2; SAOS-2, 48 h",0.08 µM
"2α,5-epoxy-5,10-dihydroxy- 6α-angeloyloxy-9β-(3-methylbutyryloxy)-germacran-8α,12-olide",NF-κB inhibitory effect,NF-κB; concentration range 1–10 μM,NF-κB inhibitory effect was shown
same,IC50,cancer cells,> 7.6 µM
